According to patent US10829473B2, “Modulators of the cystic fibrosis transmembrane conductance regulator protein and methods of use” (AbbVie Overseas S.Á.R.L., priority 2017, dated 2020):
Read-outs that look alike come from different tables or passages of the source. Marks after values point to notes of the source that are not given here.

Biological target: T1, F508delCFTR (Homo sapiens, UniProt P13569, DEL508-508)
T1 construct: expressed in transfected cells; host or cells: CFBE41o- human lung derived epithelial cells (CFBE41o-F508delCFTR-HRP), doxycycline-inducible
Assay: Cell Surface Expression-Horse Radish Peroxidase (CSE-HRP) Assay;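 for EC50 (with co-corrector): co-corrector chromenyl benzoic acid corrector at 2 or 3 µM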;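 for Maximum % activity (without co-corrector): % of on-plate positive control chromenyl benzoic acid corrector at 2 or 3 µM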
Format: cell-based
Settings: for Maximum % activity (with co-corrector) / Emax: maximum at any tested concentration; for Emax: read-out: Maximum % activity (without co-corrector)
In short: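 Corrector compounds were given as 8-point 3-fold series from 20 or 30 μM, with or without a 2 μM co-corrector, for 18-24 h at 33 °C. Surface HRP was read by luminol luminescence as % of positive control; variable-Hill-slope sigmoidal fitting gave EC50 from triplicate plates.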

[1] = test compound with co-corrector
[2] = test compound with co-corrector, read-out: EC50 (with co-corrector)
[3] = test compound without co-corrector
[4] = test compound without co-corrector, read-out: EC50 (without co-corrector)

T1 sequence (P13569 with tags, fused parts or gaps DEL508-508): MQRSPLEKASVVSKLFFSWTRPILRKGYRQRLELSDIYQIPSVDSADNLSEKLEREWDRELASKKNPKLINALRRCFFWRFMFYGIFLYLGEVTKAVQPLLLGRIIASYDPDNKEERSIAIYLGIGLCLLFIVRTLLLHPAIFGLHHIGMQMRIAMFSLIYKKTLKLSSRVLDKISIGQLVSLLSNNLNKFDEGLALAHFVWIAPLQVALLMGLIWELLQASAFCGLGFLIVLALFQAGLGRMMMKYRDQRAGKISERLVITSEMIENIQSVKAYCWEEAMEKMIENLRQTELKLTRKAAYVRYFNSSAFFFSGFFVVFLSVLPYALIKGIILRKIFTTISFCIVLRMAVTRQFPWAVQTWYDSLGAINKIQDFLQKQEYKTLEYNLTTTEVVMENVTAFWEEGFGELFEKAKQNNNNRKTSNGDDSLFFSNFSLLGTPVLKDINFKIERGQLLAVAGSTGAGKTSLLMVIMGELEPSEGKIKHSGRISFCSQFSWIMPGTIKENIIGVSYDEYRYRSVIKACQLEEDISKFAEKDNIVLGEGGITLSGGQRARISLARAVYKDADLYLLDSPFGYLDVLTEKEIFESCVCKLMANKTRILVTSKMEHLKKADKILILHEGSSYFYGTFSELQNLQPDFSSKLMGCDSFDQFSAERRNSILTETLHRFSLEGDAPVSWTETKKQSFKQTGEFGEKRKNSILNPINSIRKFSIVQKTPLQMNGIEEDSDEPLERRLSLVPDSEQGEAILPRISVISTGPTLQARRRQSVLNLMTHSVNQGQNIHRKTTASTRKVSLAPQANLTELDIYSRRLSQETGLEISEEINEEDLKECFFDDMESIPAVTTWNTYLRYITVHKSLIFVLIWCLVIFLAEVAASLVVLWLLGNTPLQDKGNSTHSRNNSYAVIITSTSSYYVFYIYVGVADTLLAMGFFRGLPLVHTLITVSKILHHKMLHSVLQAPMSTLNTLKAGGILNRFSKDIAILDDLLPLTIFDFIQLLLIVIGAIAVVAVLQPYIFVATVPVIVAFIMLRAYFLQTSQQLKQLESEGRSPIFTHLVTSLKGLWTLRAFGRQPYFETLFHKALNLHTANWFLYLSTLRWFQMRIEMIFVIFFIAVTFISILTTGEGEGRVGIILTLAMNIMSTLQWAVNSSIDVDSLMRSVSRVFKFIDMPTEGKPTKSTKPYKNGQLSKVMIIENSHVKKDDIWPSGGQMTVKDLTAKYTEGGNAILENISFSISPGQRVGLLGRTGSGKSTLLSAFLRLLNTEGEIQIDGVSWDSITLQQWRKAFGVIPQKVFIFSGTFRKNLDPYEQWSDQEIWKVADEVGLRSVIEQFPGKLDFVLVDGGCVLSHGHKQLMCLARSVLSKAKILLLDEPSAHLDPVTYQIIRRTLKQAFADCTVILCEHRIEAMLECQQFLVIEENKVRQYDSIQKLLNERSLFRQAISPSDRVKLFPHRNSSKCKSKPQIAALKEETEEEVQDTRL

For CCc1cnc(N2CCCC2)c(C2(C(=O)NS(=O)(=O)c3cccc4nc(C)ccc34)CC2)c1 [GII-31, 1-[5-ethyl-2-(pyrrolidin-1-yl)pyridin-3-yl]-N-(2-methylquinoline-5-sulfonyl)cyclopropane-1-carboxamide], the “Maximum % activity (with co-corrector)” value [1] was “+++ (≥350)”, the EC50 [2] was 3 to 10 µM and the Emax [3] was greater than 150%. It also gave an EC50 [4] of 3 to 10 µM.
CCc1cnc(N2CCOCC2)c(C2(C(=O)NS(=O)(=O)c3cccc4nc(C)ccc34)CC2)c1 [GII-32, 1-[5-ethyl-2-(morpholin-4-yl)pyridin-3-yl]-N-(2-methylquinoline-5-sulfonyl)cyclopropane-1-carboxamide] was tested, and the “EC50 (with co-corrector)” value [1] was “++^a”, the “Maximum % activity (with co-corrector)” value [1] was “++ (≥150 and <350)” and the “EC50 (without co-corrector)” value [3] was “++^a”. For the same molecule, the Emax [3] was 50 to 150%.
O=C(NS(=O)(=O)c1cccc2ncccc12)C1(c2cccnc2N2CCCC2)CC1 [GII-33, 1-[2-(pyrrolidin-1-yl)pyridin-3-yl]-N-(quinoline-5-sulfonyl)cyclopropane-1-carboxamide] was tested, and the “EC50 (with co-corrector)” value [1] was “++^a”, the “Maximum % activity (with co-corrector)” value [1] was “++ (≥150 and <350)” and the “EC50 (without co-corrector)” value [3] was “++^a”. For the same molecule, the Emax [3] was 50 to 150%.
With Cc1ccc2c(S(=O)(=O)NC(=O)C3(c4cccnc4N4CCCC4)CC3)cccc2n1 [GII-34, N-(2-methylquinoline-5-sulfonyl)-1-[2-(pyrrolidin-1-yl)pyridin-3-yl]cyclopropane-1-carboxamide] the “EC50 (with co-corrector)” value [1] was “++^a”, the “Maximum % activity (with co-corrector)” value [1] was “++ (≥150 and <350)” and the “EC50 (without co-corrector)” value [3] was “++^a”. It also gave an Emax [3] of 50 to 150%.
In the case of CCc1cnc(N2CCCC2)c(C2(C(=O)NS(=O)(=O)c3cccc4c3CCCN4)CC2)c1 [GII-35, 1-[5-ethyl-2-(pyrrolidin-1-yl)pyridin-3-yl]-N-(1,2,3,4-tetrahydroquinoline-5-sulfonyl)cyclopropane-1-carboxamide], the “Maximum % activity (with co-corrector)” value [1] is reported as “++ (≥150 and <350)”, the EC50 [2] is reported as 3 to 10 µM and the Emax [3] is reported as greater than 150%. For the same molecule, the EC50 [4] was 3 to 10 µM.
For Cc1cnc(N2CCCC2)c(C2(C(=O)NS(=O)(=O)c3cccc4nc(C)ccc34)CC2)c1 [GII-36, 1-[5-methyl-2-(pyrrolidin-1-yl)pyridin-3-yl]-N-(2-methylquinoline-5-sulfonyl)cyclopropane-1-carboxamide], the “Maximum % activity (with co-corrector)” value [1] was “+++ (≥350)”, the EC50 [2] was 3 to 10 µM and the Emax [3] was 50 to 150%. It also gave an EC50 [4] of 3 to 10 µM.
With Cc1cnc(N2CCCC2)c(C2(C(=O)NS(=O)(=O)c3cccc4[nH]ccc34)CC2)c1 [GII-37, N-(1H-indole-4-sulfonyl)-1-[5-methyl-2-(pyrrolidin-1-yl)pyridin-3-yl]cyclopropane-1-carboxamide] the “Maximum % activity (with co-corrector)” value [1] was “+++ (≥350)”, the EC50 [2] was 3 to 10 µM and the Emax [3] was greater than 150%. It also gave an EC50 [4] of 3 to 10 µM.
Cc1cnc(N2CCCC2)c(C2(C(=O)NS(=O)(=O)c3cccc4ncccc34)CC2)c1 [GII-38, 1-[5-methyl-2-(pyrrolidin-1-yl)pyridin-3-yl]-N-(quinoline-5-sulfonyl)cyclopropane-1-carboxamide] was tested, and the “Maximum % activity (with co-corrector)” value [1] was “+++ (≥350)”, the EC50 [2] was 3 to 10 µM and the Emax [3] was greater than 150%. The EC50 [4] was 3 to 10 µM.
For Cc1cnc(C2(C(=O)NS(=O)(=O)c3cccc4[nH]ccc34)CC2)c(C2CC2)c1 [GII-39, 1-(3-cyclopropyl-5-methylpyridin-2-yl)-N-(1H-indole-4-sulfonyl)cyclopropane-1-carboxamide], the “Maximum % activity (with co-corrector)” value [1] was “++ (≥150 and <350)”, the EC50 [2] was 3 to 10 µM and the Emax [3] was 50 to 150%. It also gave an EC50 [4] of 3 to 10 µM.
With COc1cnc(N2CCCC2)c(C2(C(=O)NS(=O)(=O)c3cccc4ncccc34)CC2)c1 [GII-40, 1-[5-methoxy-2-(pyrrolidin-1-yl)pyridin-3-yl]-N-(quinoline-5-sulfonyl)cyclopropane-1-carboxamide] the “Maximum % activity (with co-corrector)” value [1] was “+++ (≥350)”, the EC50 [2] was 3 to 10 µM and the Emax [3] was greater than 150%. It also gave an EC50 [4] of 3 to 10 µM.
For Cc1cnc(N(C)C)c(C2(C(=O)NS(=O)(=O)c3cccc4ncccc34)CC2)c1 [GII-41, 1-[2-(dimethylamino)-5-methylpyridin-3-yl]-N-(quinoline-5-sulfonyl)cyclopropane-1-carboxamide], the “Maximum % activity (with co-corrector)” value [1] was “+++ (≥350)”, the EC50 [2] was 3 to 10 µM and the Emax [3] was 50 to 150%. It also gave an EC50 [4] of 3 to 10 µM.
With COCCOc1ncc(OC)cc1C1(C(=O)NS(=O)(=O)c2cccc3nc(C)ccc23)CC1 [GII-42, 1-[5-methoxy-2-(2-methoxyethoxy)pyridin-3-yl]-N-(2-methylquinoline-5-sulfonyl)cyclopropane-1-carboxamide] the “Maximum % activity (with co-corrector)” value [1] was “++ (≥150 and <350)”, the EC50 [2] was 3 to 10 µM and the “EC50 (without co-corrector)” value [3] was “++^a”. The Emax [3] was 50 to 150%.
COCCOc1ncc(OC)cc1C1(C(=O)NS(=O)(=O)c2cccc3[nH]ccc23)CC1 [GII-43, N-(1H-indole-4-siilfonyl)-1-[5-methoxy-2-(2-methoxyethoxy)pyridin-3-yl]cyclopropane-1-carboxamide] was tested, and the “Maximum % activity (with co-corrector)” value [1] was “++ (≥150 and <350)”, the EC50 [2] was 3 to 10 µM and the “EC50 (without co-corrector)” value [3] was “++^a”. The Emax [3] was 50 to 150%.
COCCOc1ncc(OC)cc1C1(C(=O)NS(=O)(=O)c2cccc3ncccc23)CC1 [GII-44, 1-[5-methoxy-2-(2-methoxyethoxy)pyridin-3-yl]-N-(quinoline-5-sulfonyl)cyclopropane-1-carboxamide] was tested, and the “EC50 (with co-corrector)” value [1] was “++^a”, the “Maximum % activity (with co-corrector)” value [1] was “++ (≥150 and <350)” and the “EC50 (without co-corrector)” value [3] was “++^a”. The Emax [3] was 50 to 150%.
With COCCOc1cnc(OC)cc1C1(C(=O)NS(=O)(=O)c2cccc3[nH]ccc23)CC1 [GII-45, N-(1H-indole-4-sulfonyl)-1-[2-methoxy-5-(2-methoxyethoxy)pyridin-4-yl]cyclopropane-1-carboxamide] the “Maximum % activity (with co-corrector)” value [1] was “+++ (≥350)”, the EC50 [2] was 3 to 10 µM and the Emax [3] was greater than 150%. For the same molecule, the EC50 [4] was 3 to 10 µM.
In the case of COCCOc1cnc(OC)cc1C1(C(=O)NS(=O)(=O)c2cccc3nc(C)ccc23)CC1 [GII-46, 1-[2-methoxy-5-(2-methoxyethoxy)pyridin-4-yl]-N-(2-methylquinoline-5-sulfonyl)cyclopropane-1-carboxamide], the “Maximum % activity (with co-corrector)” value [1] is reported as “++ (≥150 and <350)”, the EC50 [2] is reported as 3 to 10 µM and the “EC50 (without co-corrector)” value [3] is reported as “++^a”. The Emax [3] was 50 to 150%.
In the case of CCc1cnc(N(C)C)c(C2(C(=O)NS(=O)(=O)c3cccc4ncccc34)CC2)c1 [GII-47, 1-[2-(dimethylamino)-5-ethylpyridin-3-yl]-N-(quinoline-5-sulfonyl)cyclopropane-1-carboxamide], the “Maximum % activity (with co-corrector)” value [1] is reported as “+++ (≥350)”, the EC50 [2] is reported as greater than 10 µM and the Emax [3] is reported as greater than 150%. For the same molecule, the EC50 [4] was 3 to 10 µM.
With CCc1cnc(N(C)C)c(C2(C(=O)NS(=O)(=O)c3cccc4nc(C)ccc34)CC2)c1 [GII-48, 1-[2-(dimethylamino)-5-ethylpyridin-3-yl]-N-(2-methylquinoline-5-sulfonyl)cyclopropane-1-carboxamide] the “Maximum % activity (with co-corrector)” value [1] was “+++ (≥350)”, the EC50 [2] was 3 to 10 µM and the Emax [3] was greater than 150%. It also gave an EC50 [4] of 3 to 10 µM.
For CCc1cnc(N(C)C)c(C2(C(=O)NS(=O)(=O)c3cccc4[nH]ccc34)CC2)c1 [GII-49, 1-[2-(dimethylamino)-5-ethylpyridin-3-yl]-N-(1H-indole-4-sulfonyl)cyclopropane-1-carboxamide], the “Maximum % activity (with co-corrector)” value [1] was “+++ (≥350)”, the EC50 [2] was 3 to 10 µM and the Emax [3] was greater than 150%. The EC50 [4] was 3 to 10 µM.
In the case of COCCOc1ncc(C)cc1C1(C(=O)NS(=O)(=O)c2cccc3nc(C)ccc23)CC1 [GII-50, 1-[2-(2-methoxyethoxy)-5-methylpyridin-3-yl]-N-(2-methylquinoline-5-sulfonyl)cyclopropane-1-carboxamide], the “Maximum % activity (with co-corrector)” value [1] is reported as “+++ (≥350)”, the EC50 [2] is reported as 3 to 10 µM and the “EC50 (without co-corrector)” value [3] is reported as “++^a”. The Emax [3] was greater than 150%.
For CC(C)Oc1ccc(C2(C(=O)NS(=O)(=O)c3cccc4ncccc34)CC2)c(N(C)C)n1 [GII-51, 1-{2-(dimethylamino)-6-[(propan-2-yl)oxy]pyridin-3-yl}-N-(quinoline-5-sulfonyl)cyclopropane-1-carboxamide], the “Maximum % activity (with co-corrector)” value [1] was “++ (≥150 and <350)”, the EC50 [2] was 3 to 10 µM and the “EC50 (without co-corrector)” value [3] was “++^a”. The Emax [3] was 50 to 150%.
With COCCOc1ncc(C)cc1C1(C(=O)NS(=O)(=O)c2cccc3ncccc23)CC1 [GII-52, 1-[2-(2-methoxyethoxy)-5-methylpyridin-3-yl]-N-(quinoline-5-sulfonyl)cyclopropane-1-carboxamide] the “Maximum % activity (with co-corrector)” value [1] was “++ (≥150 and <350)”, the EC50 [2] was 3 to 10 µM and the Emax [3] was 50 to 150%. The EC50 [4] was 3 to 10 µM.
For COCCOc1ncc(C)cc1C1(C(=O)NS(=O)(=O)c2cccc3[nH]ccc23)CC1 [GII-53, N-(1H-indolc-4-sulfonyl)-1-[2-(2-methoxyethoxy)-5-methylpyridin-3-yl]cyclopropane-1-carboxamide], the “Maximum % activity (with co-corrector)” value [1] was “+++ (≥350)”, the EC50 [2] was 3 to 10 µM and the Emax [3] was greater than 150%. It also gave an EC50 [4] of 3 to 10 µM.
In the case of CCc1cnc(N2CCC(OC(C)C)CC2)c(C2(C(=O)NS(=O)(=O)c3cccc4ncccc34)CC2)c1 [GII-54, 1-(5-ethyl-2-{4-[(propan-2-yl)oxy]piperidin-1-yl}pyridin-3-yl)-N-(quinoline-5-sulfonyl)cyclopropane-1-carboxamide], the “Maximum % activity (with co-corrector)” value [1] is reported as “+++ (≥350)”, the EC50 [2] is reported as 3 to 10 µM and the Emax [3] is reported as greater than 150%. For the same molecule, the EC50 [4] was 3 to 10 µM.
With CCc1cnc(N2CCC(OC(C)C)CC2)c(C2(C(=O)NS(=O)(=O)c3cccc4nc(C)ccc34)CC2)c1 [GII-55, 1-(5-ethyl-2-{4-[(propan-2-yl)oxy]piperidin-1-yl}pyridin-3-yl)-N-(2-methylquinoline-5-sulfonyl)cyclopropane-1-carboxamide] the “Maximum % activity (with co-corrector)” value [1] was “+++ (≥350)”, the EC50 [2] was 3 to 10 µM and the Emax [3] was greater than 150%. It also gave an EC50 [4] of 3 to 10 µM.
